Experiments:
Assay in all cases: Inhibition of tumor cell proliferation (CTG, 6 days)
Format in all cases: cell-based, human
MDA-MB-468 cells = conditions: FIG. 5
Protocol: (§1) All the cells were those with high expression of Trop2 antigens. Trodelvy was the tradename of sacituzumab govitecan injector. Sacituzumab was an outsourced anti-Trop2 antibody. All cell lines were cultured in the complete medium at 37° C. with 5% CO2. Cells in the logarithmic growth phase were harvested and then counted using a […], and the cell viability was tested by the trypan blue rejection method to ensure that the cell viability was above 90%. […] The cells in the 96-well plate were cultured at 37° C. with 5% CO2. […] The cells from the dosed 96-well plate were cultured at 37° C. with 5% CO2 for another 6 days, followed by CTG analysis (CTG, a CellTiter-Glo kit, was a homogeneous cell viability assay for quantifying ATP to determine the viability of cultured cells). The CTG reagent was thawed, and the cell plate was equilibrated to room temperature for 30 min. 100 μL of CTG solution was added per well. The cells were shaken on an orbital shaker for 5 min for lysis. The cell plate was treated at room temperature for 20 min to stabilize the cold light signal. The cold light values were read to collect data. […] [formula]

NCI-H1650 cells = conditions: FIG. 7
Protocol: as §1

NCI-H596 cells = conditions: FIG. 8
Protocol: as §1

SNU216 cells = conditions: FIG. 6
Protocol: as §1

Trodelvy
efficacy (in words) (MDA-MB-468 cells): superior to Sacituzumab | efficacy (in words) (NCI-H1650 cells): superior to Sacituzumab | efficacy (in words) (NCI-H596 cells): certain efficacy | efficacy (in words) (SNU216 cells): superior to Sacituzumab

From patent US20240350650A1, “LINKER AND CONJUGATE THEREFOR” (BEIJING HOPE PHARMACEUTICAL CO.LTD., priority 2021, published 2024)
